The source of these data is US12285434B2, “Therapeutic, preventive, or improvement agent for inflammatory disease and allergic disease” (The University of Tokyo, priority 2018, dated 2025).

SMILES strings stand for the structures.

The test system of assay [1] is histamine-induced vascular permeability in mouse ears. Nature of the assay: Modified Miles assay: histamine-induced vascular hyperpermeability (Evans blue extravasation). Type of assay: in vivo, mouse (C57BL/6). Conditions: pretreatment 0.1 μg/ear, 15 minutes, before 400 μg histamine. On the procedure:
Fifteen (15) minutes after the intracutaneous injection, a vehicle (80% acetone) or histamine (400 μg, manufactured by Molecular Probes) was percutaneously administered to the ventral surface of the ears. To evaluate vascular permeability, Evans blue (50 mg/kg, manufactured by Sigma) was injected intravenously 5 minutes after the administration of histamine. The mice were then euthanized by cervical dislocation 30 minutes after the injection of Evans blue. The ears were dissected, dried at 55° C., and weighed. Extravasated Evans blue present in the ears was extracted in formamide (manufactured by Molecular Probes), and quantified spectrophotometrically (manufactured by PerkinElmer Japan Co., Ltd.) at a wavelength of 610 nm.

Another assay has as its system ear vessels of the mice. Kind of assay: In vivo microscopy of ear vessels: FITC-dextran leakage and vascular diameter after histamine. On the set-up: species or system mouse. On the procedure:
To visualize the ear vessels of the mice, 70 kDa fluorescein isothiocyanate-dextran (10 mg/kg, manufactured by Sigma-Aldrich) was injected intravenously. Then, immediately after the administration of fluorescein isothiocyanate-dextran, 5,6-DiHETE (0.1 μg) was administered by instillation (percutaneously administered) as a pretreatment, and this group of mice was designated as a “5,6-DiHETE-administered group.” As a control group, a group of mice not administered with 5,6-DiHETE was designated as a “[…]-administered group”. Then, 15 minutes after the administration by instillation, histamine (400 μg) was administered by instillation (percutaneously administered) into the ventral surface of the ears for both the groups. Next, the mice were placed on the stage of a microscope confocal microscope (ECLIPSE Ti with C1 confocal system, manufactured by Nikon Corporation), and their body temperatures were maintained at 37° C. Dextran leakage and vascular diameter in the ears were monitored every minute in a period from 0 to 30 minutes after the administration of histamine using EZ-C1 Free Viewer (manufactured by Nikon Corporation), and the dextran leakage, artery diameter and vein diameter were quantified according to the description of Omori, K. et al., British Journal of Pharmacology, 171:4879-4889 (2014). It is known that smooth muscle contraction reduces the downstream blood flow and limits the vascular leakage, whereas smooth muscle relaxation (increase of vascular diameter) increases the blood flow, thereby leading to vascular leakage.

Another assay deals with HUVECs. Kind of assay: Endothelial barrier function: transendothelial electrical resistance (TER). The format is cell-based, human. Here is the method:
(§1) In Examples 4 to 6, human umbilical vein endothelial cells (hereinafter, sometimes referred to as “HUVECs”, manufactured by Lonza) were cultured in EGM-2 (manufactured by Lonza K.K.). These cells (passages 4 to 9) were used for experiments after 4-hour starvation in EBM-2 (manufactured by Lonza K.K.) containing 2% FBS.
The in vitro endothelial barrier function was evaluated by measuring the transendothelial electrical resistance (hereinafter, sometimes referred to as “TER”) of the HUVECs prepared in the above item (1) over time. Specifically, the transendothelial electrical resistance was measured using an xCELLigence Real-Time Cell Analyzer DP system (manufactured by Roche). The system monitors changes in TER across an interdigitated microelectrode at the bottom of tissue culture E-plates (manufactured by Roche). The HUVECs (8,000 cells) were plated on the E-plates and incubated until confluent. Then, the following operation (a) or (b) was performed.
(a) Each reagent was added to plates on which the HUVECs were cultured, so as to give a vehicle, 1 U/mL thrombin, 1 μM forskolin, or 0.1 μM or 0.3 μM 5,6-DiHETE (FIGS. 4A and 4B).
(b) A vehicle or […] was added to plates on which the HUVECs were cultured, so as to attain 10 μM. […] Thirty (30) minutes after the addition, 10 μM histamine was added to each plate 30 minutes after the addition (FIGS. 4C and 4D).
In the above operations (a) and (b), the TER was measured every 60 seconds. For normalization, the cell index value at each time point is shown as a ratio relative to the initial value. The maximum normalized cell index after stimulation was quantified and represented as maximal response. Note that it is known that the disruption of the endothelial barrier function lowers the TER, but that the enhancement of the endothelial barrier function increases the TER.

Another assay concerns NO production in HUVECs. Kind of assay: Histamine-induced NO production (nitrite and nitrate). Type of assay: cell-based, human. The note with it: pretreatment 0.1 μM, 15 minutes; histamine 10 μM. On the procedure: as §1
The HUVECs were washed three times with HEPES and incubated in HEPES supplemented with 1 mM L-arginine and 10 μM tetrahydrobiopterin. After equilibration for 30 minutes, the medium was exchanged, and the cells were incubated for additional 30 minutes. […] The conditioned media before and after the stimulation (100 μL each) were collected and centrifuged in each amount of 300 g for 3 minutes. The supernatants were collected, and used to measure nitrite and nitrate, as stable metabolites of NO, by an ENO-20 NOx analyzer (manufactured by Eicom Corporation). The degrees of increases of nitrite and nitrate levels after the stimulation were normalized with cellular protein contents.

Another assay has as its system anaphylaxis model mice. Kind of assay: Histamine-induced anaphylaxis: blood pressure and body temperature. Type of assay: in vivo, mouse (C57BL/6). Conditions: 50 μg/kg intravenously 15 minutes before histamine 50 mg/kg. Here is the method:
Histamine (50 mg/kg) lysed in a physiological saline solution was intravenously administered to C57BL/6 strain mice (male, 8 to 12 weeks old) to prepare anaphylaxis model mice (hereinafter, sometimes referred to as “anaphylaxis group”). […] L-NAME is an NO synthesis inhibitor. As indices of anaphylactic symptoms, a body temperature decrease and a blood pressure decrease were observed.

[2] abbreviates: 0.1 μg pretreatment 15 minutes before histamine 400 μg.

Regarding `CC/C=C\C/C=C\C/C=C\C/C=C\C[C@@H](O)[C@@H](O)CCCC(=O)O` (racemic) [5,6-DiHETE, (±) 5,6-dihydroxy-8Z,11Z,14Z,17Z-eicosatetraenoic acid], in assay [1], the “dye extravasation (Evans blue) in ear” value was found to be 0.06 ± 0.02 µg/mg. Further, in the assay on ear vessels of the mice (setting [2]), the “histamine-induced increase of vein diameter” value was “not inhibited” and the “mean fluorescence intensity of FITC-dextran extravasation vs histamine-administered group” value is recorded as “significantly decreased”. Also, in the assay with ear vessels of the mice (0.1 μg pretreatment by instillation 15 minutes before histamine 400 μg), the “artery diameter as compared with arteries nonstimulated with histamine” value came to 132±15%. In addition, the “change of TER” value in the assay on HUVECs (0.1 μM and 0.3 μM, alone) is given as “did not change the TER”. Further, the “TER, minimum (normalized cell index)” value in the assay on HUVECs (pretreatment 0.3 μM, 15 minutes, before histamine 10 μM) worked out at 0.915±0.012 fold. The “histamine-induced NO production” value in the assay with NO production in HUVECs worked out at 0.11±0.06 pmol/μg protein. In addition, in the assay with anaphylaxis model mice, the blood pressure is listed as 93.3±4.9 mmHg and the body temperature decrease is −0.2±0.1 °C.
